“And” between values parts separate entries of the source, which are not always exact repeats. Equal entries are not always repeated. Each block holds one molecule with its values, some of them ahead of it.
Columns and labels:
human FGFR4 kinase = target: T1, human FGFR4 kinase (Homo sapiens, UniProt P22455); assay: FGFR4 kinase assay (Kinase HotSpot, Reaction Biology Corp.); type: biochemical; conditions: for inhibition at 1 µM: fixed concentration 1 μM, mean of two independent experiments; for inhibition at 0.01 µM: 0.01 μM concentration, two independent experiments
T1 construct: purchased Reaction Biology Corporation (Malvern, PA, USA), contract assay service
T1 sequence (P22455 22-802): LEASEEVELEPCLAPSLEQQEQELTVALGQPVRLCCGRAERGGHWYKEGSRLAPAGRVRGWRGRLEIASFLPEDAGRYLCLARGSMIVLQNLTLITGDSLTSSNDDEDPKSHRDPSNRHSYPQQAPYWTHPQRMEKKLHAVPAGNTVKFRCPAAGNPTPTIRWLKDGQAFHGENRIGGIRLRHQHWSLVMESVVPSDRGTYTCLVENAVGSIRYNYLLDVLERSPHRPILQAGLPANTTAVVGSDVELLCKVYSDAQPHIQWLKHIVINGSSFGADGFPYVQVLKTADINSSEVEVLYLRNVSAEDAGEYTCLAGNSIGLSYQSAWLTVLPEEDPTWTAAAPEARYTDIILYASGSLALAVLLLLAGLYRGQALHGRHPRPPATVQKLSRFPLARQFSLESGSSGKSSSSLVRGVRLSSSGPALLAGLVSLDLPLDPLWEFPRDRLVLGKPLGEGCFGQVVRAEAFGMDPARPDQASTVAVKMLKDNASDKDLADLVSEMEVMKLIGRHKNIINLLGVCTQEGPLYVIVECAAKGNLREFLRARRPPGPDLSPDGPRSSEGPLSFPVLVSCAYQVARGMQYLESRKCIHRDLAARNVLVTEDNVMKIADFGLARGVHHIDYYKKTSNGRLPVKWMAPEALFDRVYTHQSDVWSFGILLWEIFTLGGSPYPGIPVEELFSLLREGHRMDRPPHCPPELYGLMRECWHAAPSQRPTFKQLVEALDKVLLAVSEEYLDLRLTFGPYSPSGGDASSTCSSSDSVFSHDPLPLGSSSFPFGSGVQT
Procedure: A FGFR4 kinase assay was performed at the Reaction Biology Corporation (Malvern, PA, USA) using a Kinase HotSpotSM assay platform (www.reactionbiology.com, last accessed at 19/10/2020). Briefly, human FGFR4 kinase (5–10 mU), peptide substrate, and poly[Glu:Tyr] (4:1) 0.2 mg/ml were prepared in a reaction buffer with a final volume of 25 µL. The compounds were delivered into the reaction, followed ∼20 min. later by the addition of a mixture of ATP and [γ-^33P-ATP] (specific activity approx. 500 cpm/pmol, concentration as required) to a final concentration of 10 µM. After incubation for 40 min. at 25 °C, the reaction was stopped by the addition of a 3% phosphoric acid solution. Then, the reaction was spotted onto a P30 filtermat, and unbound phosphate was removed by washing 3 times for 5 min in 75 mM phosphoric acid and once in methanol prior to drying and scintillation counting. […] IC50 values and curve fits were obtained using GraphPad Prism 5 software.

Hep3B cells = assay: Cell proliferation assay (MTT), Hep3B; type: cell-based, human; conditions: for IC50: Homo sapiens, Hep3B, 48 h treatment, mean ± SEM of three independent experiments
Procedure: (§1) Human HCC cell lines, Hep3B and Huh7 were obtained from American Type Culture Collection (ATCC, Manassas, VA, USA). An H6c7 human normal pancreatic duct epithelial cell line was purchased from Kerafast (Boston, MA, USA). Hep3B and Huh7 cells were cultured in Dulbecco′s Modified Eagle′s Medium (DMEM) (Hyclone, Logan, UT, USA). The media were supplemented with 10% foetal bovine serum (FBS) (Gibco/ThermoFisher Scientific) and 1% penicillin/streptomycin (Gibco/ThermoFisher Scientific). H6c7 cells were maintained in a keratinocyte serum-free medium supplemented with a recombinant […] growth factor (rEGF) and bovine pituitary extract (Gibco/ThermoFisher Scientific). All the cells were incubated at 37 °C under a 5% CO2 atmosphere.
(§2) Cells were seeded at a density of 5000 cells/well in a 96-well plate. After overnight incubation, the cells were serum-starved using 1% FBS for 24 h. The next day, the cells were pre-treated with the different concentrations (0.1, 1, 3, 10, 30, 100 µM) of drugs for 1 h prior to the treatment with serum (10% FBS). After 48 h of incubation, 3–(4,5-dimethylthiazol-2-yl)-2,5-diphenyltetrazolium bromide (MTT) dye solution was added and incubated for 4 h. Next, DMSO was added, and after 30 min, the colour intensities were measured using a microplate reader (Versamax, Molecular Devices, Inc., USA) at 490 nm.

Huh7 cells = assay: Cell proliferation assay (MTT), Huh7; type: cell-based, human; conditions: for IC50: Homo sapiens, Huh-7, 48 h treatment, mean ± SEM of three independent experiments; for difference of anti-proliferative activity between Hep3B and Huh7: Huh7 versus Hep3B, 48 h
Procedure: as §1, §2

[1] = system: Hep3B-xenografted CAM tumour model; assay: CAM (chick chorioallantoic membrane) tumour model implanted with Hep3B cells; type: in vivo
Procedure: Fertile chicken eggs were purchased from Byeolbichon Farm (Gyeongbuk, South Korea) and incubated at 37 °C and under 55% relative humidity. On the 9th day of egg incubation (post-fertilization), false air sac was generated on the relatively flat side of eggs by a negative pressure technique. A small window (1 cm^2) was created on the false air sac surface of the eggs by separating the shell and membrane beneath (technique) using a grinding wheel (Dremel, Racine, WI, USA). Next, Hep3B cells were loaded at a density of 1.5 × 10^6 cells/CAM with or without compound. After four days of drug treatment, the tumour weight, number of vessel branch points within the tumour region were analysed.

[2] = Cytotoxicity assay (MTT), H6c7; type: cell-based; conditions: human, H6c7 normal pancreatic duct epithelial cells, 48 h treatment, mean ± SEM of three independent experiments, read-out: IC50 on cell viability (cytotoxicity), H6c7
Procedure: as §1
The cytotoxicity of the compounds was assessed by measuring the cell viability decrease using the MTT staining method. Briefly, H6c7 cells were seeded in a 96-well plate (Falcon, USA) at a density of 4 × 10^4 cells per well in keratinocyte serum-free medium. After 24 h, Cells were incubated with different concentrations (0.1, 1, 3, 10, 30, and 100) µM of each compound for 48 h, and the cell viability was measured using MTT assay. Optical density was measured at 540 nm using a microplate reader (BMG LABTECH).

FGFR2 = target: T2, FGFR2 (Homo sapiens, UniProt P21802); assay: FGFR2 ADP-glow kinase assay; type: biochemical
T2 construct: purchased Promega, WI, USA
T2 sequence (P21802 22-821): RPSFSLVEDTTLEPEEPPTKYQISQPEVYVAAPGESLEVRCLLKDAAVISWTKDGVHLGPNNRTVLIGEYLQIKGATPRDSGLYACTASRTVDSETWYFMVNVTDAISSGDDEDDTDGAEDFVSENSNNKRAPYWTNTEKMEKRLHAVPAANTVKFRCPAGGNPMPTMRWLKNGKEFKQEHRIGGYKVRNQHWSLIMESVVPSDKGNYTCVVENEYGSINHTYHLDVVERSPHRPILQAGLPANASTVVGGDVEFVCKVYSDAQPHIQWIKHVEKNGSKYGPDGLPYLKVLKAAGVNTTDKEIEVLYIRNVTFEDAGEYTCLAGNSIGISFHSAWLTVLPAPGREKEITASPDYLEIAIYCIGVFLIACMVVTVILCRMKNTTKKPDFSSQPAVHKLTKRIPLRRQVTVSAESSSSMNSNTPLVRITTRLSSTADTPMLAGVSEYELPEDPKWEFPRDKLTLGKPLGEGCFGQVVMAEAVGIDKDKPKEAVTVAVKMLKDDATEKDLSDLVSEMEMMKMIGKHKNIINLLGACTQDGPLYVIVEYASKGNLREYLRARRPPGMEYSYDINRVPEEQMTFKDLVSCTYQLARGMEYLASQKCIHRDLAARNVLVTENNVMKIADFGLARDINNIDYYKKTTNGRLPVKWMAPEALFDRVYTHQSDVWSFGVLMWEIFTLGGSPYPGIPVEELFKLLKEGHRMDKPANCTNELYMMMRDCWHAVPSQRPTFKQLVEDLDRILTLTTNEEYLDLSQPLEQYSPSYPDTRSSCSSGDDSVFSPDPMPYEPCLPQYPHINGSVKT
Procedure: (§3) FGFR1 ∼ 3 kinase assays were performed using the adenosine diphosphate (ADP)-glow kinase assay kit of FGFR1, FGFR2, and FGFR3 kinase enzyme systems (Promega, WI, USA) in accordance with the manufacturer’s instructions. […] The reaction was carried out at 25 °C for 1 h in a total volume of 25 µL. Subsequently, 25 µL of ADP-Glow reagent was added to the mixture, and then incubated for 40 min at 25 °C. After the addition of 50 µL of ADP detection reagents for 30 min at 25 °C, luminescence was measured using a Fluostar Omega microplate reader (BMG LABTECH GmbH, Ortenberg, Germany).

FGFR1 = target: T3, FGFR1 (Homo sapiens, UniProt P11362); assay: FGFR1 ADP-glow kinase assay; type: biochemical
T3 construct: purchased Promega, WI, USA
T3 sequence (P11362 22-822): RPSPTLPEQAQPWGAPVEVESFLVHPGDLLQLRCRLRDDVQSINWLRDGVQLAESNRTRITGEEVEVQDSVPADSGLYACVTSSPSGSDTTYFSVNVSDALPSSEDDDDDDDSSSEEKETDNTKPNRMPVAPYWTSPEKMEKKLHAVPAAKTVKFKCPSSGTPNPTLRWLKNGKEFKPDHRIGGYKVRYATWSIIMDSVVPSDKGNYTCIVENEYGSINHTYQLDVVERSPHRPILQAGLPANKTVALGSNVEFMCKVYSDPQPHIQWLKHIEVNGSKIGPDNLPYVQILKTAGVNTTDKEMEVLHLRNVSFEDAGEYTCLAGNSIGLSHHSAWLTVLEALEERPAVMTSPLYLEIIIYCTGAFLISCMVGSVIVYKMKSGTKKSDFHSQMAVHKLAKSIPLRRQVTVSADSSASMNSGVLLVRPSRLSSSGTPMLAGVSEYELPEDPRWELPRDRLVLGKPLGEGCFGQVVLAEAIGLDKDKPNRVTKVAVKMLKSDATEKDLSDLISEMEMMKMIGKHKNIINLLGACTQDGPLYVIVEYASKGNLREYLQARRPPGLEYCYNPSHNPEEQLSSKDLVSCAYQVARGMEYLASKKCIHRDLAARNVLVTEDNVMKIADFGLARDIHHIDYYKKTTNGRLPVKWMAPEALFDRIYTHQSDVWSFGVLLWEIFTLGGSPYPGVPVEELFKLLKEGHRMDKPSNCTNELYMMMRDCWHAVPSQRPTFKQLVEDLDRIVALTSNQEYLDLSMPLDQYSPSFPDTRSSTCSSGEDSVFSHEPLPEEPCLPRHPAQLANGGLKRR
Procedure: as §3

FGFR3 = target: T4, FGFR3 (Homo sapiens, UniProt P22607); assay: FGFR3 ADP-glow kinase assay; type: biochemical
T4 construct: purchased Promega, WI, USA
T4 sequence (P22607 23-806): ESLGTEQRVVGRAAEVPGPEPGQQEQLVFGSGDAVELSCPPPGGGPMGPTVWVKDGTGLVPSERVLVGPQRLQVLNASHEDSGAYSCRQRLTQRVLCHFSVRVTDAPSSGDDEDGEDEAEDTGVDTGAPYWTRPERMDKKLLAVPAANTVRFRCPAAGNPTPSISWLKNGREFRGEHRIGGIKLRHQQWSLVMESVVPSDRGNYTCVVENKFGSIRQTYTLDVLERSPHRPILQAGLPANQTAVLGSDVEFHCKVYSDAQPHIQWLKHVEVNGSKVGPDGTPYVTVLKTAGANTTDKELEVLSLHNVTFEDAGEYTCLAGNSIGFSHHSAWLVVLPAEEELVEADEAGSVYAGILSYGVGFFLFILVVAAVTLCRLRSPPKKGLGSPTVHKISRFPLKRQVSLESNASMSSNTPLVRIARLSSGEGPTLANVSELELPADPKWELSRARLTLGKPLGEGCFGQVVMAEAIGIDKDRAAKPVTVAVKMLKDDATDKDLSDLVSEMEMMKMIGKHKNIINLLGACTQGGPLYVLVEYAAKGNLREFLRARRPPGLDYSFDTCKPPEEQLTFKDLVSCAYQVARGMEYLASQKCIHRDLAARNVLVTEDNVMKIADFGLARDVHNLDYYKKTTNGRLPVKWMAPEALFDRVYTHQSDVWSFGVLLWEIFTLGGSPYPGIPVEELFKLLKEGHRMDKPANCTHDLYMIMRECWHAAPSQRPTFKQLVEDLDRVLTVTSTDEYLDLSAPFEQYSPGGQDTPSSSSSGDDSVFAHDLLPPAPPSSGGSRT
Procedure: as §3

Compound: C=CC(=O)Nc1cccc(C)c1Nc1ncc2cc(-c3c(Cl)c(OC)cc(OC)c3Cl)ccc2n1 [Compound 1, reference compound]
IC50 (Hep3B cells): 900 ± 100 nM | IC50 (Huh7 cells): 7100 ± 5000 nM | difference of anti-proliferative activity between Hep3B and Huh7 (Huh7 cells): 7 fold | tumour growth ([1]; four days after Hep3B xenograft on CAM): dose-dependently inhibited | tumour-induced angiogenesis ([1]; number of new vessel branches on CAM, four days): significantly blocked | IC50 at 48 h [2]: 13400 nM

Compound: C=CC(=O)Nc1cn(C)nc1Nc1nc(C)c(OCc2c(Cl)c(OC)cc(OC)c2Cl)c(C)n1 [Compound 6D]
inhibition at 1 µM (human FGFR4 kinase): 8%

Compound: C=CC(=O)Nc1cn(C)nc1Nc1nc(C)c(OCc2c(F)c(OC)cc(OC)c2F)c(C)n1 [Compound 6C]
inhibition at 1 µM (human FGFR4 kinase): 22%

Compound: C=CC(=O)Nc1cn(C)nc1Nc1nc(C)c(OCc2c(F)c(OC)cc(OC)c2F)c(C)c1C [Compound 6A]
fold less potent than compound 1, Hep3B IC50 (Hep3B cells; 48 h): 28 fold | IC50 (Hep3B cells): 25200 nM | IC50 (Huh7 cells): 21300 ± 6000 nM | difference of anti-proliferative activity between Hep3B and Huh7 (Huh7 cells): did not show a significant difference | Ratio against FGFR4 (FGFR2) (FGFR2; ratio of FGFR2 to FGFR4 inhibitory activity): 6.0 | IC50 (FGFR2; three independent experiments): 1150 nM | Ratio against FGFR4 (FGFR1) (FGFR1; ratio of FGFR1 to FGFR4 inhibitory activity): 8.2 | IC50 (FGFR1; three independent experiments): 1560 nM and 1570 nM | IC50 at 48 h [2]: > 100000 nM | Ratio against FGFR4 (FGFR3) (FGFR3; ratio of FGFR3 to FGFR4 inhibitory activity): 1.5 | IC50 (FGFR3; three independent experiments): 277 nM | IC50 (human FGFR4 kinase; 7 different concentrations, three independent experiments): 190 nM | inhibition at 1 µM (human FGFR4 kinase): 62.8%

Compound: C=CC(=O)Nc1ccc(N2CCN(CC)CC2)cc1Nc1nc(C)c(OCc2c(Cl)c(OC)cc(OC)c2Cl)c(C)n1 [Compound 6BB]
inhibition at 1 µM (human FGFR4 kinase): 5.4%

Compound: C=CC(=O)Nc1cccc(C)c1Nc1nc(C)c(OCc2c(Cl)c(OC)cc(OC)c2Cl)c(C)c1C [Compound 6F]
inhibition at 1 µM (human FGFR4 kinase): 5.4%

Compound: C=CC(=O)Nc1cccc(C)c1Nc1nc(C)c(OCc2c(F)c(OC)cc(OC)c2F)c(C)c1C [Compound 6E]
inhibition at 0.01 µM (human FGFR4 kinase): 5% | inhibition at 1 µM (human FGFR4 kinase): 7.2%

Compound: C=CC(=O)Nc1ccc(N2CCN(CC)CC2)cc1Nc1nc(C)c(OCc2c(F)c(OC)cc(OC)c2F)c(C)n1 [Compound 6AA]
inhibition at 1 µM (human FGFR4 kinase): 10.3%

Other lines, results leading:

inhibition at 1 µM (human FGFR4 kinase): 10.3%
Compound: C=CC(=O)Nc1cccc(OC)c1Nc1nc(C)c(OCc2c(F)c(OC)cc(OC)c2F)c(C)c1C [Compound 6Q]

inhibition at 1 µM (human FGFR4 kinase): 10.1%
Compound: C=CC(=O)Nc1ccc(OC)cc1Nc1nc(C)c(OCc2c(F)c(OC)cc(OC)c2F)c(C)c1C [Compound 6U]

inhibition at 1 µM (human FGFR4 kinase): 14%
Compound: C=CC(=O)Nc1cccc(C)c1Nc1nc(C)c(OCc2c(Cl)c(OC)cc(OC)c2Cl)c(C)n1 [Compound 6H]

inhibition at 1 µM (human FGFR4 kinase): 6.9%
Compound: C=CC(=O)Nc1cccc(OC)c1Nc1nc(C)c(OCc2c(Cl)c(OC)cc(OC)c2Cl)c(C)c1C [Compound 6R]

inhibition at 1 µM (human FGFR4 kinase): 49.3%
Compound: C=CC(=O)Nc1cccc(OC)c1Nc1nc(C)c(OCc2c(F)c(OC)cc(OC)c2F)c(C)n1 [Compound 6S]

inhibition at 1 µM (human FGFR4 kinase): 2.7%
Compound: C=CC(=O)Nc1ccc(N2CCN(CC)CC2)cc1Nc1nc(C)c(OCc2c(Cl)c(OC)cc(OC)c2Cl)c(C)c1C [Compound 6Z]

inhibition at 1 µM (human FGFR4 kinase): 12.8%
Compound: C=CC(=O)Nc1cc(F)cc(Cl)c1Nc1nc(C)c(OCc2c(Cl)c(OC)cc(OC)c2Cl)c(C)n1 [Compound 6P]

inhibition at 0.01 µM (human FGFR4 kinase): 87.4%
Compound: C=CC(=O)Nc1cccc(C)c1Nc1ncc(OCc2c(F)c(OC)cc(OC)c2F)cn1 [Compound 42, reference compound]

From paper PMC8933034, “6-Amino-2,4,5-trimethylpyridin-3-ol and 2-amino-4,6-dimethylpyrimidin-5-ol derivatives as selective fibroblast growth factor receptor 4 inhibitors: design, synthesis, molecular docking, and anti-hepatocellular carcinoma efficacy evaluation” (Journal of Enzyme Inhibition and Medicinal Chemistry, 2022)
